For 61 compounds, IC50 results are on record in US8530460B2, “Azetidine derivatives” (Boehringer Ingelheim International GmbH, priority 2011, dated 2013).

The target in the test is human ACC2 (Homo sapiens (Human), UniProt O00763). Nature of the test: ACC2 assay (spectrophotometric 384 well assay, NADH-linked coupled lactate dehydrogenase/pyruvate kinase). The test is classed as biochemical. As to conditions: hACC2 construct lacking 128 N-terminal amino acids; 25° C., 340 nm, 15 minutes. As to the method: Spectrophotometric 384 Well Assay
Chain of human ACC2 (O00763 129-2458): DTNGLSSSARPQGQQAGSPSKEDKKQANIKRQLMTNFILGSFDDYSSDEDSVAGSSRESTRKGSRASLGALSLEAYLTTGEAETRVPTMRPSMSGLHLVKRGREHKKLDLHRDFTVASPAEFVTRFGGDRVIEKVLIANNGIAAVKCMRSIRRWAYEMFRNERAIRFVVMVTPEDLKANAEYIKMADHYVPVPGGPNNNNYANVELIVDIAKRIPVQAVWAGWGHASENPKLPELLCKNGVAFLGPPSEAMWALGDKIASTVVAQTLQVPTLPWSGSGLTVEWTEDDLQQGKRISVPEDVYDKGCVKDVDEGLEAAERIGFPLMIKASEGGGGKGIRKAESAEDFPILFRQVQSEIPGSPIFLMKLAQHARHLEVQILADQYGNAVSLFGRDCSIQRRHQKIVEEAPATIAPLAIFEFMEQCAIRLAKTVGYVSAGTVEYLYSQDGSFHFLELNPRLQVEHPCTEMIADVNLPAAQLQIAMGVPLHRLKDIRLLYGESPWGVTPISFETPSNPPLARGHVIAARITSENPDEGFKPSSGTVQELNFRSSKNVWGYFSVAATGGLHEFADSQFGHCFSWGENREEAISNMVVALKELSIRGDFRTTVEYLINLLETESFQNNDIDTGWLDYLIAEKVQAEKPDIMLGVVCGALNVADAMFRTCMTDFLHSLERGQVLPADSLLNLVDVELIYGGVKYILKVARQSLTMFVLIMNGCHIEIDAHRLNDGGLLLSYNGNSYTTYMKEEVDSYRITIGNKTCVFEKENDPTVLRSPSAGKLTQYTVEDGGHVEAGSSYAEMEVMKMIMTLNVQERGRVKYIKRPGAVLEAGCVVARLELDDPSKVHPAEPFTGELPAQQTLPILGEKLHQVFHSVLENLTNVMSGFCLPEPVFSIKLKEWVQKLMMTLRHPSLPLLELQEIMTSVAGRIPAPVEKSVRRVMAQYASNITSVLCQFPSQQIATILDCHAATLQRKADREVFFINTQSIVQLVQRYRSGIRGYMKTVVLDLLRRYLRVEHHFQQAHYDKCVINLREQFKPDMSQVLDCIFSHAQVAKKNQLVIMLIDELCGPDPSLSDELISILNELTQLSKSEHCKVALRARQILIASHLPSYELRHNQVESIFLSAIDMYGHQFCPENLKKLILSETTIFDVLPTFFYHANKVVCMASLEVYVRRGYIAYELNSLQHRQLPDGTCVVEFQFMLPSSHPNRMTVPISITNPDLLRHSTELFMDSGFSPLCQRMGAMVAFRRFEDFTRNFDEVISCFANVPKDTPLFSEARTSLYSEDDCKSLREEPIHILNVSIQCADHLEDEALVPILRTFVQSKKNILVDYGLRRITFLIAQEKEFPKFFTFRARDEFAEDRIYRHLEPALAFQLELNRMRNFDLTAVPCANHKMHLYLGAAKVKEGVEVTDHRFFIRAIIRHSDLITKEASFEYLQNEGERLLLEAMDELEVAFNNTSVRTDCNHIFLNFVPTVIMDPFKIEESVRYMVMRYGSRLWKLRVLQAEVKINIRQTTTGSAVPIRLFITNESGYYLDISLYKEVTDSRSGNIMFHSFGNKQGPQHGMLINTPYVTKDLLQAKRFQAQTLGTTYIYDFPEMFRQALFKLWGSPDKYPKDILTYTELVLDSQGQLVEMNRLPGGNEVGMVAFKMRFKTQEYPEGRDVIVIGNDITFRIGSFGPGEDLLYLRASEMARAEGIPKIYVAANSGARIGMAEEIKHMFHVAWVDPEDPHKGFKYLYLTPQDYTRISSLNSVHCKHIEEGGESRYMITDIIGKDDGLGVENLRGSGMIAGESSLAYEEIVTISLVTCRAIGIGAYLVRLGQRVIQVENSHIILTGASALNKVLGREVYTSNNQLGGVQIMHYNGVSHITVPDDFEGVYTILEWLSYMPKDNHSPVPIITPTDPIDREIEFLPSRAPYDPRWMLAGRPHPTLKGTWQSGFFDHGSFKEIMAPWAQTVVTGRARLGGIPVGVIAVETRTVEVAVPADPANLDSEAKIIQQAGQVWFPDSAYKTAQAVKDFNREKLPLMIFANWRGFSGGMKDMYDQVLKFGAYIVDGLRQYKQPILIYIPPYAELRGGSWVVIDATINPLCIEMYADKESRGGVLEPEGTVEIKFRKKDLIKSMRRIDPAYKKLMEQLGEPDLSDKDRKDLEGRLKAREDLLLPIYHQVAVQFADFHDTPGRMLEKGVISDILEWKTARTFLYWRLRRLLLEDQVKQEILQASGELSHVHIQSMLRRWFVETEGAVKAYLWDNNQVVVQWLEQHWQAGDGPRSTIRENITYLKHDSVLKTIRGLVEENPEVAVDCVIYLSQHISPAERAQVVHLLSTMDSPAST
Malonyl CoA formation by acetyl CoA carboxylases is stoichometrically linked to the consumption of ATP. ACC2 activity is measured in a NADH-linked kinetic method measuring ADP generated during the ACC reaction using a coupled lactate dehydrogenase/pyruvate kinase reaction.
For biological testing, a human ACC2 construct which lacks the 128 amino acids at the N-terminus for increased solubility (nt 385-6966 in Genbank entry AJ575592) is cloned. The protein is then expressed in insect cells using a baculoviral expression system. Protein purification is performed by anion exchange.
All compounds are dissolved in dimethyl sulfoxide (DMSO) to a concentration of 10 mM.
Assay reactions are then carried out in 384-well plates, with hACC2 in an appropriate dilution and at final assay concentrations (f.c.) of 100 mM Tris (pH 7.5), 10 mM trisodium citrate, 25 mM KHCO3, 10 mM MgCl2, 0.5 mg/ml BSA, 3.75 mM reduced L-glutathione, 15 U/ml lactate dehydrogenase, 0.5 mM phosphoenolpyruvate, 15 U/ml pyruvate kinase, compounds at different concentrations at final DMSO concentrations of 1%.
The enzymatic reaction is then started by addition of a mixture of NADH, acetyl Coenzyme A (both 200 μM f.c.) and ATP (500 uM f.c.). The decrease of the optical density (slope S) is then determined at 25° C. at a wavelength of 340 nm over 15 minutes in a spectrophotometric reader.
Each assay microtiter plate contains wells with vehicle instead of compound as controls for the non-inhibited enzyme (100% CTL; ‘HIGH’) and wells without acetyl-CoA as controls for non-specific NADH degradation (0% CTL; ‘LOW’).
The slope S is used for calculation of % CTL=(S(compound)−S(‘LOW’))/(S(‘HIGH’)—S(‘LOW’))*100. Compounds will give values between 100% CTL (no inhibition) and 0% CTL (complete inhibition).
For IC50 value determination, the sample slope in the presence of the test compound after subtraction of the low controls (S(compound)−S(‘LOW’)) are used.
An IC50 value is derived from the compound slopes at different dosages after subtraction of the low controls (S(compound)−S(‘LOW’)) by non-linear regression curve fitting (equation y=(A+((B−A)/(1+((C/x)^D))))).

Each structure is given as a SMILES string.

`CC(=O)N[C@@H](C)c1ccc(OC2CN(c3cccc(C(F)(F)F)c3)C2)cc1` [Example 1.56] showed an IC50 of 150 nM.
The compound `CCOc1ccc(N2CC(Oc3ccc([C@H](C)NC(C)=O)cc3)C2)c(C#N)n1` [Example 1.58] registered an IC50 of 1390 nM.
Compound `CC(=O)NC(C)c1ccc(OC2CN(c3ccc(OCC4CC4)cc3)C2)c(F)c1` (stereo not shown) [Example 13, N-(1-(4-(1-(4-(cyclopropylmethoxy)phenyl)azetidin-3-yloxy)-3-fluorophenyl)ethyl)-acetamide] came in with an IC50 of 100 nM.
The figure for `CC(=O)NC(C)Cc1ccc(OC2CN(c3ccc(C(C)(C)C)cc3)C2)cc1` (stereo not shown) [Example 1.11] is 2210 nM.
As for `C[C@H](NC(=O)C1CC1)c1ccc(OC2CN(c3ccc(OCC4CC4)cc3)C2)cc1` [Example 1.40], the 50% inhibitory concentration (IC50) was 1030 nM.
The result for `COc1cc(OC(C)C)ccc1N1CC(Oc2ccc([C@H](C)NC(C)=O)cc2)C1` [Example 1.37] reads 2270 nM; that for `CC(=O)N[C@@H](C)c1ccc(OC2CN(c3cccc(OC4CCCC4)c3)C2)cc1` [Example 7.3], 780 nM.
Compound `CC(=O)N[C@@H](C)c1ccc(OC2CN(c3nc4ccccc4nc3C)C2)cc1` [Example 4.38] had an IC50 of 3050 nM.
As to `CCOc1ccc(N2CC(Oc3ccc([C@H](C)NC(=O)c4cn[nH]c4)cc3)C2)cc1` [Example 8.7], the 50% inhibitory concentration (IC50) is 50 nM.
Consider `CC(=O)N[C@@H](C)c1ccc(OC2CN(c3cc(OC4CCC4)ncn3)C2)cc1` [Example 11.5], for which the IC50 turned out to be 3200 nM.
The result for `C[C@H](NC(=O)N(C)C)c1ccc(OC2CN(c3ccc4c(c3)OCCO4)C2)cc1` [Example 1.34] reads 340 nM; that for `CCCOc1ccc(N2CC(Oc3ccc([C@H](C)NC(=O)c4cncs4)cc3)C2)c(OC)c1` [Example 8.4], 430 nM; that for `CCOc1ccc(N2CC(Oc3ccc([C@H](C)NC(=O)C4(C(F)(F)F)CC4)cc3)C2)cc1` [Example 8.21], 300 nM.
The result for `COc1cc(OC2CC2)ccc1N1CC(Oc2ccc([C@H](C)NC(C)=O)cc2)C1` [Example 1.43] reads 1290 nM; that for `CCOc1ccc(N2CC(Oc3ccc([C@H](C)NC(=O)C4CC(OC)C4)cc3)C2)cc1` (stereo partly shown) [Example 8.44], 930 nM.
`CCCOc1nccc(N2CC(Oc3ccc([C@H](C)NC(C)=O)cc3)C2)n1` [Example 11.6] gave an IC50 of 8280 nM.
The result for `CC(=O)N[C@@H](C)c1ccc(OC2CN(c3ccc4c(c3)OCCCC4(C)C)C2)cc1` [Example 1.29] reads 190 nM; that for `CCOc1ccc(N2CC(Oc3ccc([C@H](C)NC(=O)CF)cc3)C2)cc1` [Example 8.30], 670 nM; that for `C[C@H](NC(=O)N(C)C)c1ccc(OC2CN(c3ncc(Br)cn3)C2)cc1` [Example 3.7], 470 nM.
The result for `CC(=O)N[C@@H](C)c1ccc(OC2CN(c3cc(OCC4CC4)ncn3)C2)cc1` [Example 11.4] reads 2390 nM; that for `CCNC(=O)N[C@@H](C)c1ccc(OC2CN(c3ncc(C4CC4)cn3)C2)cc1` [Example 10.2], 1170 nM; that for `CCOc1ccc(N2CC(Oc3ccc([C@H](C)NC(=O)CC)cc3)C2)cc1` [Example 8.29], 410 nM.
The figure for `CC(=O)N[C@@H](C)c1ccc(OC2CN(c3ccc4c(c3)OCCO4)C2)cc1` [Example 1.24] is 120 nM; for `C[C@H](NC(=O)C1CC1)c1ccc(OC2CN(c3ncc(C4CC4)cn3)C2)cc1` [Example 3.5] it is 200 nM.
Turning to `CCCOc1ccc(N2CC(Oc3ccc(C(C)NC(C)=O)cc3)C2)cn1` (stereo not shown) [Example 1.9], 560 nM corresponded to half-maximal inhibition (IC50).
The result for `CCOc1ccc(N2CC(Oc3ccc([C@H](C)NC(=O)c4cccc(NC(C)=O)c4)cc3)C2)cc1` [Example 8.11] reads 2840 nM; that for `CCOc1ccc(N2CC(Oc3ccc([C@H](C)NC(=O)Cc4cccnc4)cc3)C2)cc1` [Example 8.24], 3940 nM; that for `CCNc1ncc(N2CC(Oc3ccc(C(C)NC(C)=O)cc3)C2)cn1` (stereo not shown) [Example 1.7], 1250 nM.
The result for `CCOc1ccc(N2CC(Oc3ccc([C@H](C)NC(=O)C4(C)CC4)cc3)C2)cc1` [Example 8.9] reads 1150 nM; that for `CCOc1ccc(N2CC(Oc3ccc([C@H](C)NC(=O)c4ccc(C)o4)cc3)C2)cc1` [Example 8.37], 2060 nM; that for `CC(=O)N[C@@H](C)c1ccc(OC2CN(c3ccc(OCC4CC4)cc3)C2)cc1` [Example 1.14], 70 nM.
The figure for `CC(=O)N[C@@H](C)c1ccc(OC2CN(c3ccc(-c4ccccc4)cn3)C2)cc1` [Example 4.8] is 240 nM; for `CC(=O)N[C@@H](C)c1ccc(OC2CN(c3ncc4nc(-c5ccccc5)oc4n3)C2)cc1` [Example 4.23] it is 1180 nM.
Regarding `CC(=O)N[C@@H](C)c1ccc(OC2CN(c3ccc(Br)cn3)C2)cc1` [Example 4.17], the half-inhibitory concentration (IC50) came out at 290 nM.
Compound `COc1cc(OCC2CC2(F)F)ccc1N1CC(Oc2ccc([C@H](C)NC(C)=O)cc2)C1` (stereo partly shown) [Example 1.61] registered an IC50 of 2540 nM.
`C[C@H](NC(=O)C1CC1)c1ccc(OC2CN(c3ncc(Br)cn3)C2)cc1` [Example 3.6] showed an IC50 of 3880 nM.
The figure for `CC(=O)N[C@@H](C)c1ccc(OC2CN(c3ccc(OC4CC4)cc3OC3CC3)C2)cc1` [Example 2.4] is 6140 nM; for `CCOc1ccc(N2CC(Oc3ccc([C@H](C)NC(=O)CO)cc3)C2)cc1` [Example 8.17] it is 2790 nM.
The compound `COc1cc(-c2cnc(N3CC(Oc4ccc([C@H](C)NC(C)=O)cc4)C3)nc2)ccn1` [Example 6.2] displayed an IC50 of 1740 nM.
The figure for `CC(=O)N[C@@H](C)c1ccc(OC2CN(c3ncc(C(C)(C)C)cn3)C2)cc1` [Example 4.27] is 570 nM.
The result for `CC(=O)N[C@@H](C)c1ccc(OC2CN(c3ccnc(Oc4cncnc4)c3)C2)cc1` [Example 2.9] reads 10600 nM; that for `CC(=O)N[C@@H](C)c1ccc(OC2CN(c3cnc4ccccc4n3)C2)cc1` [Example 4.28], 360 nM; that for `CC(=O)N[C@@H](C)c1ccc(OC2CN(c3nccc4ccccc34)C2)cc1` [Example 4.6], 6230 nM.
Regarding `CCOc1ccc(N2CC(Oc3ccc([C@H](C)NC(C)=O)cc3)C2)cc1` [Example 1.19], the IC50 was 90 nM.
Compound `CCOc1ccc(N2CC(Oc3ccc([C@H](C)NC(=O)CCOC)cc3)C2)cc1` [Example 8.26] gave a 50% inhibitory concentration (IC50) of 2780 nM.
The figure for `CC(=O)N[C@@H](C)c1ccc(OC2CN(c3ncc(OCC4CC4(F)F)cn3)C2)cc1` (stereo partly shown) [Example 4.42] is 530 nM; for `CCOc1ccc(N2CC(Oc3ccc([C@H](C)NC(=O)c4cnc(NC(=O)CO)s4)cc3)C2)cc1` [Example 8.10] it is 370 nM; for `CCOc1ccc(N2CC(Oc3ccc([C@H](C)NC(C)=O)cc3)C2)nc1` [Example 1.51] it is 270 nM.
`CC(=O)N[C@@H](C)c1ccc(OC2CN(c3ccc(OC4CC4)cc3F)C2)cc1` [Example 1.55] returned a concentration for half-maximal inhibition (IC50) of 110 nM.
The figure for `CCOc1ccc(N2CC(Oc3ccc([C@H](C)NC(=O)CC(F)(F)F)cc3)C2)cc1` [Example 8.18] is 740 nM.
In the case of `CC(=O)N[C@@H](C)c1ccc(OC2CN(c3cccc(OCC4CC4(F)F)c3)C2)cc1` (stereo partly shown) [Example 7.2], half-maximal inhibition (IC50) was put at 1250 nM.
Regarding `CCOc1ccc(N2CC(Oc3ccc([C@H](C)NC(=O)CC4CC4)cc3)C2)cc1` [Example 8.15], the IC50 stood at 1740 nM.
The figure for `CC(=O)N[C@@H](C)c1ccc(OC2CN(c3ccc4c(c3)OCC(C)(C)CO4)C2)cc1` [Example 1.18] is 140 nM; for `CC(=O)N[C@@H](C)c1ccc(OC2CN(c3ccc(OCC4CC4(F)F)cc3F)C2)cc1` (stereo partly shown) [Example 1.54] it is 40 nM.
The compound `CCCOc1ccc(N2CC(Oc3ccc([C@H](C)NC(=O)c4cn[nH]c4)cc3)C2)c(OC)c1` [Example 8.3] showed a half-maximal inhibitory concentration (IC50) of 1090 nM.
The figure for `CC(=O)N[C@@H](C)c1ccc(OC2CN(c3ccc(C(F)(F)F)cc3C#N)C2)cc1` [Example 1.23] is 2810 nM.
The figure for `CC(=O)N[C@@H](C)c1ccc(OC2CN(c3ccc4c(c3)OC(F)(F)O4)C2)cc1` [Example 1.26] is 740 nM.
For the compound `C[C@H](NC(=O)c1cn[nH]c1)c1ccc(OC2CN(c3ncc(C4CC4)cn3)C2)cc1` [Example 8.5], the IC50 was 160 nM.
`C[C@H](NC(=O)N(C)C)c1ccc(OC2CN(c3ncc(C4CC4)cn3)C2)cc1` [Example 10.1] showed a half-inhibitory concentration (IC50) of 340 nM.
With `CCOc1ccc(N2CC(Oc3ccc([C@H](C)NC(C)=O)cc3)C2)c(F)c1` [Example 2.3], half-maximal inhibition (IC50) required 240 nM.
The figure for `CC(=O)N[C@@H](C)c1ccc(OC2CN(c3ncc(C(F)(F)F)cc3F)C2)cc1` [Example 4.31] is 190 nM.

What is called IC50 is the midpoint of a concentration-inhibition curve.
